# Measured values from patent US20240369551A1 (priority 2021, published 2024).
# Where “and” joins values, the source holds several entries; their conditions need not be identical. Identical values can stand only once. Like-named read-outs stand apart in the source and are kept apart here. Ends that are not written are not given here.
# What was measured:
# [1] = system: SARS-CoV-2 IgG; assay: Fluorescence polarization (FP) of FITC-labeled epitopes with IgG; assay type: binding, rabbit; conditions: 100 nM FITC-labeled epitope, 200 nM IgG, 15 min, 1×PBS
# [2] = system: SARS-CoV-2 IgG antibodies; assay: Immunoassay with epitope-tagged AuNPs (aggregation, relative change in absorbance at 534 nm); assay type: binding, rabbit; conditions: for limit of detection (LOD): single epitope-functionalized AuNPs (streptavidin-biotin), respective SARS-CoV-2 IgG; for decrease of normalized plasmon peak intensity (534 nm): anti-SARS-CoV-2 S1 IgG; for LOD: detection of anti-SARS-CoV-2 S1 IgG; for nanosensor response: 100 nM anti-S1 IgG
# Procedure: (§1) SARS-CoV-2 IgG antibodies and control antibodies were first diluted in 1×PBS. In a typical experiment, 5 μL of prediluted antibody solution was added to 45 μL of epitope-functionalized AuNPs. The mixture was spun briefly for 20 s at 6000 rpm using a portable microcentrifuge (Profuge 6K) and incubated for another 30 min at room temperature. Absorbance spectra of the supernatant were recorded using a microplate reader (Synergy 2; BioTek). Sensor response was calculated as the relative change in absorbance at 534 nm. For a time-profile study, the absorbance spectra were recorded at 10 min intervals. For a salt-induced aggregation test, solutions of AuNPs were treated with 1×PBS and the absorbance spectra were recorded after a 30 min incubation. For a selectivity screen against other human coronaviruses, the concentration of antibodies was 100 nM. To investigate the sensitivity of AuNPs in human plasma, SARS-CoV-2 IgG rabbit antibodies were spiked into PBS containing various concentrations of human plasma, such that the final plasma concentration after mixing with AuNPs was 0%, 10%, and 20% (v/v).
# [3] = target: epitope-specific SARS-CoV-2 IgGs; assay: SPR spectroscopy (Biacore T200): IgG binding to immobilized biotinylated peptide epitopes; set-up: species or system rabbit; conditions: for binding affinities (estimated Kd, order of magnitude): Example 9, kinetic fitting, streptavidin treated CM5 chip; for Kd: respective target IgG, 25° C.; for apparent Kd: kinetic analysis, very slow dissociation, beyond the instrument sensitivity limit
# [4] = system: COVID19 anti-S1 IgG; assay: UV-vis aggregation test of peptide-coated nanoparticles (Examples 1, 6, 7, 8); assay type: binding; conditions: for response to COVID-19 IgGs: single epitope thiol-AuNP conjugation with thiolyated spacer CALNN
# [5] = system: SARS-CoV IgG; assay type: binding
# [6] = system: MERS IgGs; assay type: binding
# [7] = system: HCoV-HKU1 IgGs; assay: Immunoassay with epitope-tagged AuNPs, selectivity screen; assay type: binding; conditions: 100 nM antibodies
# Procedure: as §1
# [8] = system: normal human IgG; assay: Immunoassay with epitope-tagged AuNPs, control IgG; assay type: binding
# Procedure: as §1
# [9] = system: COVID19 anti-S2 IgG; assay: UV-vis aggregation test of peptide-AuNP conjugates (Example 2); assay type: binding; conditions: streptavidin-biotin conjugates, peptide 10 or 1 μM
# Procedure: Citrate-coated AuNP was functionalized with streptavidin (SA) by mixing 500 nM of SA with 8 nM of citrate-coated AuNP. The mixture was incubated at room temperature for 30 min, and unbound SA was removed from the SA-coated AuNPs (SA-AuNPs) with centrifugation at 12,500 RCF for 15 mins. Then, biotinylated S20P2 or S21P2 peptide (10 or 1 μM) was added to conjugate to the SA-AuNPs. Unreacted peptides were removed from the peptide-AuNP conjugates with centrifugation at 12500 RCF for 12 mins. The conjugates were reconstituted into ultrapure water for further tests with IgG.
# For IgG test, 20 μL of COVID19 anti-S2 IgG (SINO Biological) was added to 80 μL of peptide-AuNP conjugates in a 96-well plate. UV-vis spectrum before and after IgG addition are recorded (FIGS. 3A and B). […] For both conjugates, a higher degree of aggregation is observed when lower peptide concentration (1 μM) is used, presumably due to the diluted coating density around AuNP which poses less steric hindrance for binding with IgG.
# [10] = real-time kinetic analysis, 1:1 Langmuir model, read-out: Kd from kinetic analysis
# [11] = steady-state analysis without dissociation step, read-out: Kd from steady-state analysis
substance,measurement,setting,value
GIAVEQDKNTQEVFAQVK [S20P2],relative FP increase,[1],significant increase in FP values
same,limit of detection (LOD),[2],15.4 nM
same,"binding affinities (estimated Kd, order of magnitude)",[3],nM
same,Kd,[3]; [10],~80 nM and 80 nM
same,Kd,[3]; [11],510 ± 34 nM
NNAAIVLQLPQGTTLPKG [N4P5],relative FP increase,[1],comparably lower percentage of FP increase
same,limit of detection (LOD),[2],25.8 nM
same,"binding affinities (estimated Kd, order of magnitude)",[3],μM
same,Kd,[3]; [10],~218 nM and 218 nM
same,Kd,[3]; [11],1610 ± 120 nM
PSKPSKRSFIEDLLFNKV [S21P2],relative FP increase,[1],significant increase in FP values
same,limit of detection (LOD),[2],5.1 nM
same,response to COVID-19 IgGs,[4],resulted in nanoparticle aggregation
same,"binding affinities (estimated Kd, order of magnitude)",[3],pM
same,apparent Kd,[3],low pM range
same,Kd,[3]; [10],< 1 nM
same,Kd,[3]; [11],125 ± 7 nM
"S14P5-AuNPs: Gold nanoparticles functionalized with S14P5; streptavidin-biotin in Example 10, thiol-gold with or without CALNN spacer in Examples 1 and 6 (TESNKKFLPFQQFGRDIA; also: conjugated to gold nanoparticles via streptavidin-biotin or thiol-gold, with or without CALNN spacer)",dose-dependent aggregation response (decrease in plasmon peak intensity),[5],absent
same,normalized sensor response,[5],11.4%
same,normalized sensor response with SARS-CoV IgG relative to SARS-CoV-2 IgG (fold lower),[5]; after 60 min,6 fold
same,decrease of normalized plasmon peak intensity (534 nm),[2]; first 10 min,40.2%
same,decrease of normalized plasmon peak intensity (534 nm),[2]; leveling off within 30 min,67.3%
same,LOD,[2],4.1 nM
same,limit of detection (LOD),[2],4.1 nM
same,sensor response,[6],minimal sensor response
same,sensor response,[7],minimal sensor response
same,IgG concentration giving visible change in colour from red to purple,[4]; Example 1: thiol-conjugated S14P5 with CALNN blocking,≥ 100 nM
same,linear range,"[4]; Example 1: thiol-conjugated S14P5 with CALNN blocking, absorbance ratio",10 to 100 nM
same,LOD,"[4]; Example 1: thiol-conjugated S14P5 with CALNN blocking, absorbance ratio, 15 min",~30 nM and 4.5 μg/ml
same,binding / nanoparticle aggregation,"[4]; thiol-AuNP conjugation without spacer, COVID-19 anti-S1 IgG (100 nM)",unable to bind to anti COVID-19 IgGs
same,dose-dependent aggregation response (decrease in plasmon peak intensity),[8],absent
S14P5/S21P2-AuNPs: Streptavidin-coated gold nanoparticles functionalized with both biotinylated S14P5 and S21P2 epitopes (peptide 1 TESNKKFLPFQQFGRDIA; peptide 2 PSKPSKRSFIEDLLFNKV; also: biotinylated peptides on streptavidin-coated gold nanoparticle),recognition of anti-S1 and anti-S2 IgGs of SARS-CoV-2,[2]; 50 nM of anti-S1 IgG or anti-S2 IgG (FIG. 23),able to recognize both anti-S1 and anti-S2 IgGs
same,nanosensor response,[2]; 5-fold diluted human plasma,14.6%
same,nanosensor response,[2]; 10-fold diluted human plasma,22.8%
same,nanosensor response,[2]; pure PBS,78.2%
same,LOD,[2],3.2 nM
"S21P2-AuNPs: Streptavidin-coated gold nanoparticles functionalized with biotinylated S21P2 epitope (PSKPSKRSFIEDLLFNKV; also: biotinylated, bound to streptavidin-coated gold nanoparticles)",limit of detection (LOD),[2],5.1 nM
same,sensor response,[6],minimal sensor response
same,aggregation of peptide-coated AuNPs,[9],significant aggregation
same,sensor response,[7],minimal sensor response
TESNKKFLPFQQFGRDIA [S14P5],relative FP increase,[1],highest relative FP increase
same,limit of detection (LOD),[2],4.1 nM
same,response to COVID-19 IgGs,[4],resulted in nanoparticle aggregation
same,"binding affinities (estimated Kd, order of magnitude)",[3],pM
same,apparent Kd,[3],low pM range
same,Kd,[3]; [10],< 1 nM
same,Kd,[3]; [11],111 ± 15 nM
